Data on eleven compounds can be found in US20240116985A1, “STAPLED PEPTIDES AND METHODS THEREOF” (priority 2020, published 2024).

A short description of one data set: CHI Log D procedure. It is filed as physicochemical. The following applies: for CHI Log D: pH 7.4.
Data set [1] has as its target T1, full-length B-Catenin (Uniprot ID P35222) (Homo sapiens, UniProt P35222).
T1 construct: 65 nM full-length B-Catenin (Uniprot ID P35222)
T1 sequence (P35222 1-781): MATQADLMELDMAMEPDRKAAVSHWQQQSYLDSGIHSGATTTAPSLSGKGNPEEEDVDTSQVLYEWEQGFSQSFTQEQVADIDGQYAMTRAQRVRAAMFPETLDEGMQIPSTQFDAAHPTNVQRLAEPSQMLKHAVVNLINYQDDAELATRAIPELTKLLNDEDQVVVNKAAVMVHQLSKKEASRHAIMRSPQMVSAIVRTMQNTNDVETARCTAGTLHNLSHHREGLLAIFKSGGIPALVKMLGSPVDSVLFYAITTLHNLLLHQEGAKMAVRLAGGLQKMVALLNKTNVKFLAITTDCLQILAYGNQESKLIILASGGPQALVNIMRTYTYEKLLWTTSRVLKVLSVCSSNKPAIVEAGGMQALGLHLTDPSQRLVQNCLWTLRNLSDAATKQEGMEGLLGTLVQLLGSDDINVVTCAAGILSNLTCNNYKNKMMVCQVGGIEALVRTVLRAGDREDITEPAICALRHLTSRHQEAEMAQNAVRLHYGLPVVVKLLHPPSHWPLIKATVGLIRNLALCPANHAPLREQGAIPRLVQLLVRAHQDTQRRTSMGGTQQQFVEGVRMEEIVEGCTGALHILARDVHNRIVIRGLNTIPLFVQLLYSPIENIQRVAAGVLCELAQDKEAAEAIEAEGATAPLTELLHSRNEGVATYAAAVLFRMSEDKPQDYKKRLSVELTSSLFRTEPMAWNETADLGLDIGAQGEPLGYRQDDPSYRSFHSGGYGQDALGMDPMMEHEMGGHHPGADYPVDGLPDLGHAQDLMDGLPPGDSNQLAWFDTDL
As to the kind of experiment: Alphascreen binding assay (beta-catenin / biotin-TCF4 10-53). On the procedure: In some embodiments, an assay is an Alphascreen binding assay. A useful protocol is described below as an example.
Alphascreen binding assay: Using the AlphaScreen Histidine (Nickel Chelate) Detection Kit (PerkinElmer), peptide solutions were prepared in buffer (50 mM Tris pH 8.0, 250 mM NaCl, 2% glycerol, 0.03% Tween-20, 0.01% TritonX-100, 0.1% BSA w/v) using a 3-fold serial dilution from 10 uM to 5 nM. Probe solution (65 nM full-length B-Catenin (Uniprot ID P35222), mixed with 10 nM biotin labeled TCF4 residues 10-53 (Uniprot ID Q9NQB0) peptide in buffer) was prepared and 4 uL per well was plated in a white polystyrene 384-well plate (Corning). Equal volume of the titrated peptide was added to the plate and incubated for 15 minutes at 20° C. Then 4 uL of donor and 4 uL acceptor beads at 10 ug/mL were added to the plate, for a 16 uL reaction pool and protected from light for 60 minutes at 20° C. prior to read. Reads were performed on a CLARIOstar plate reader (BMG Labtech) in duplicate, and data were fitted to a 1:1 binding model with hill slope using an in-house script. All provided concentrations are final concentrations.
(Bead proximity is the source of the signal in Alpha formats.)

On to `CC(=O)N[C@@H](Cc1ccccc1)C(=O)N[C@@H](CC(=O)O)C(=O)N[C@@H](C)C(=O)N[C@]1(C)CCCCCCC=CCOC(=O)N2CC[C@@](C(=O)N[C@@H](Cc3ccccc3)C(=O)N[C@@H](Cc3c[nH]c4ccccc34)C(=O)N[C@@H](CCC(N)=O)C(N)=O)(C2)NC(=O)[C@H](C(C)C)NC(=O)[C@H](Cc2cccc(C(N)=O)c2)NC(=O)[C@H](C)NC(=O)[C@H](C)NC(=O)[C@H](CC(=O)O)NC(=O)[C@H](CC(=O)O)NC1=O` [I-109, Ac-Phe-Asp-Ala-R8-Asp-Asp-Ala-Ala-3CBMF-Val-PyrS-Phe-Trp-Gln-NH2], for which the “CHI Log D” value in the data set “CHI Log D procedure” came out at 1.223. In data set [1], this compound gave an EC50 of 8.82 µM.
In the case of `CC(=O)N[C@@H](Cc1ccccc1)C(=O)N[C@@H](CC(=O)O)C(=O)N[C@@H](C)C(=O)N[C@]1(C)CCCCCCC=CCOC(=O)N2CC[C@@](C(=O)N[C@@H](Cc3ccc(C(=O)O)cc3)C(=O)N[C@@H](Cc3c[nH]c4ccccc34)C(=O)N[C@@H](CCC(N)=O)C(N)=O)(C2)NC(=O)[C@H](C(C)C)NC(=O)[C@H](Cc2ccccc2)NC(=O)[C@H](C)NC(=O)[C@H](C)NC(=O)[C@H](CC(=O)O)NC(=O)[C@H](CC(=O)O)NC1=O` [I-110, Ac-Phe-Asp-Ala-R8-Asp-Asp-Ala-Ala-Phe-Val-PyrS-4COOHF-Trp-Gln-NH2], the “CHI Log D” value in the data set “CHI Log D procedure” was 0.769. This compound returned an EC50 in data set [1] of 8.5 µM.
The matching figures for `CC(=O)N[C@@H](Cc1ccccc1)C(=O)N[C@@H](CC(=O)O)C(=O)N[C@@H](C)C(=O)N[C@]1(C)CCCCCCC=CCOC(=O)N2CC[C@@](C(=O)N[C@@H](Cc3ccc(C(=O)O)cc3)C(=O)N[C@@H](Cc3c[nH]c4ccccc34)C(=O)N[C@@H](CCC(N)=O)C(N)=O)(C2)NC(=O)[C@H](C(C)C)NC(=O)[C@H](Cc2ccccc2)NC(=O)[C@H](C)NC(=O)[C@H](C)NC(=O)[C@H](CC(=O)O)NC(=O)[C@H](CC(=O)O)NC1=O` [I-111, Ac-Phe-Asp-Ala-R8-Asp-Asp-Ala-Ala-Phe-Val-PyrS-4COOHF-Trp-Gln-NH2]: 0.779 and 7.64 µM.
Turning to `CC(=O)N[C@@H](Cc1ccccc1)C(=O)N[C@@H](CC(=O)O)C(=O)N[C@@H](C)C(=O)N[C@]1(C)CCCCCCC=CCOC(=O)N2CC[C@@](C(=O)N[C@@H](Cc3ccccc3)C(=O)N[C@@H](Cc3c[nH]c4ccccc34)C(=O)N[C@@H](CCC(N)=O)C(N)=O)(C2)NC(=O)[C@H](C(C)C)NC(=O)[C@H](Cc2ccc3ccccc3c2)NC(=O)[C@H](C)NC(=O)[C@H](C)NC(=O)[C@H](CC(=O)O)NC(=O)[C@H](CC(=O)O)NC1=O` [I-113, Ac-Phe-Asp-Ala-R8-Asp-Asp-Ala-Ala-2NapA-Val-PyrS-Phe-Trp-Gln-NH2], in “CHI Log D procedure”, the “CHI Log D” value was 1.435. Further, the EC50 in data set [1] was found to be 6.2 µM.
Consider `CC(=O)N[C@@H](Cc1ccccc1)C(=O)N[C@@H](CC(=O)O)C(=O)N[C@@H](C)C(=O)N[C@]1(C)CCCCCCC=CCOC(=O)N2CC[C@@](C(=O)N[C@@H](Cc3ccccc3)C(=O)N[C@@H](Cc3c[nH]c4ccccc34)C(=O)N[C@@H](CCC(N)=O)C(N)=O)(C2)NC(=O)[C@H](C(C)C)NC(=O)[C@H](CCc2ccc(O)cc2)NC(=O)[C@H](C)NC(=O)[C@H](C)NC(=O)[C@H](CC(=O)O)NC(=O)[C@H](CC(=O)O)NC1=O` [I-119, Ac-Phe-Asp-Ala-R8-Asp-Asp-Ala-Ala-hTyr-Val-PyrS-Phe-Trp-Gln-NH2], for which, in “CHI Log D procedure”, the “CHI Log D” value was 1.17. The midpoint of the response in data set [1], the EC50, lay at 4.94 µM.
Regarding `CC(=O)N1CCC[C@]12CC=CCCCC1(CCCC=CCCCCCC[C@@](C)(C(=O)N[C@@H](Cc3ccccc3)C(=O)N[C@@H](Cc3c[nH]c4ccccc34)C(=O)N[C@@H](CCC(N)=O)C(N)=O)NC(=O)[C@H](C(C)C)NC(=O)[C@H](Cc3ccccc3)NC(=O)[C@H](C)NC(=O)[C@H](C)NC(=O)[C@H](CC(N)=O)NC(=O)[C@H](CC(=O)O)NC1=O)NC(=O)[C@H](C)NC(=O)[C@H](CC(=O)O)NC2=O` (stereo partly drawn) [I-124, Ac-PL3-Asp-Ala-B5-Asp-Asn-Ala-Ala-Phe-Val-S8-Phe-Trp-Gln-NH2], in “CHI Log D procedure”, the “CHI Log D” value stood at 2.252. The compound also gave an EC50 in data set [1] of 1.28 µM.
Regarding `CC(=O)N1CCC[C@]12CC=CCCCC1(CCCC=CCCCCCC[C@@](C)(C(=O)N[C@@H](Cc3ccccc3)C(=O)N[C@@H](Cc3c[nH]c4ccccc34)C(=O)N[C@@H](CCC(N)=O)C(N)=O)NC(=O)[C@H](C(C)C)NC(=O)[C@H](Cc3ccccc3)NC(=O)[C@H](C)NC(=O)[C@H](C)NC(=O)[C@H](CCC(N)=O)NC(=O)[C@H](CC(=O)O)NC1=O)NC(=O)[C@H](C)NC(=O)[C@H](CC(=O)O)NC2=O` (stereo partly drawn) [I-126, Ac-PL3-Asp-Ala-B5-Asp-Gln-Ala-Ala-Phe-Val-S8-Phe-Trp-Gln-NH2], the “CHI Log D” value in “CHI Log D procedure” is 2.239. Besides, the EC50 in data set [1] came to 1.48 µM.
The corresponding values for `CC(=O)N1CCC[C@]12CC=CCCCC1(CCCC=CCOC(=O)N(C)CCC[C@@](C)(C(=O)N[C@@H](Cc3ccccc3)C(=O)N[C@@H](Cc3c[nH]c4ccccc34)C(=O)N[C@@H](CCC(N)=O)C(N)=O)NC(=O)[C@H](C(C)C)NC(=O)[C@H](Cc3ccccc3)NC(=O)[C@H](C)NC(=O)[C@H](C)NC(=O)[C@H](CCC(=O)O)NC(=O)[C@H](CC(=O)O)NC1=O)NC(=O)[C@H](C)NC(=O)[C@H](CC(=O)O)NC2=O` (stereo partly drawn) [I-130, Ac-PL3-Asp-Ala-B5-Asp-Glu-Ala-Ala-Phe-Val-SeN-Phe-Trp-Gln-NH2] are 1.346 and 0.797 µM.
Turning to `CC(=O)N1CCC[C@]12CC=CCCCC1(CCCC=CCCCCCC[C@@](C)(C(=O)N[C@@H](Cc3ccccc3)C(=O)N[C@@H](Cc3c[nH]c4ccccc34)C(=O)NC(C)(C)C(N)=O)NC(=O)[C@H](C(C)C)NC(=O)[C@H](Cc3ccccc3)NC(=O)[C@H](C)NC(=O)[C@H](C)NC(=O)[C@H](CCC(=O)O)NC(=O)[C@H](CC(=O)O)NC1=O)NC(=O)[C@H](C)NC(=O)[C@H](CC(=O)O)NC2=O` (stereo partly drawn) [I-133, Ac-PL3-Asp-Ala-B5-Asp-Glu-Ala-Ala-Phe-Val-S8-Phe-Trp-Aib-NH2], the “CHI Log D” value in “CHI Log D procedure” turned out to be 2.383. Moreover, the EC50 in data set [1] amounted to 0.495 µM.
`CC(=O)N1CCC[C@]12CC=CCCCC1(CCCC=CCCCCCC[C@@](C)(C(=O)N[C@@H](Cc3ccccc3)C(=O)N[C@@](C)(Cc3c[nH]c4ccccc34)C(=O)N[C@@H](CCC(N)=O)C(N)=O)NC(=O)[C@H](C(C)C)NC(=O)[C@H](Cc3ccccc3)NC(=O)[C@H](C)NC(=O)[C@H](C)NC(=O)[C@H](CCC(=O)O)NC(=O)[C@H](CC(=O)O)NC1=O)NC(=O)[C@H](C)NC(=O)[C@H](CC(=O)O)NC2=O` (stereo partly drawn) [I-136, Ac-PL3-Asp-Ala-B5-Asp-Glu-Ala-Ala-Phe-Val-S8-Phe-aMeW-Gln-NH2]: the “CHI Log D” value in “CHI Log D procedure” was determined as 2.136. In data set [1], this compound returned an EC50 of 3.3 µM.
`CC(=O)N1CCC[C@]12CC=CCCCC1(CCCC=CCCCCCC[C@@](C)(C(=O)N[C@@H](Cc3ccccc3)C(=O)N[C@@H](Cc3ccc4ccccc4c3)C(N)=O)NC(=O)[C@H](C(C)C)NC(=O)[C@H](Cc3ccccc3)NC(=O)[C@H](C)NC(=O)[C@H](C)NC(=O)[C@H](CCC(=O)O)NC(=O)[C@H](CC(=O)O)NC1=O)NC(=O)[C@H](C)NC(=O)[C@H](CC(=O)O)NC2=O` (stereo partly drawn) [I-141, Ac-PL3-Asp-Ala-B5-Asp-Glu-Ala-Ala-Phe-Val-S8-Phe-2NapA-NH2] showed a chromatographic logD in the data set “CHI Log D procedure” (pH 7.4, CHI Log D) of 2.43. For the same compound, the EC50 in data set [1] came out at 5.45 µM.

As usually defined, the EC50 is the midpoint of the concentration-response curve. A high value points to a need for much substance. The term chromatographic logD denotes lipophilicity estimated from chromatographic retention.
